# Test results taken from US9023821B2, “Use of MicroRNA for treating diseases associated with a dysfunction of the cilia in multiciliated epithelial cells” (Centre National de la Recherche Scientifique, priority 2009, dated 2015).
# Assays:
# [1] = tested on: human airway epithelial cells (HAECs); test: High-throughput sequencing (HTS) of miRNAs at four stages of differentiation of HAECs; details: for Modulation (ratio of the level of intensity of expression in log2 in two stages of differentiation) measured by high-throughput sequencing, D7 − D0 / Modulation (ratio of the level of intensity of expression in log2 in two stages of differentiation) measured by high-throughput sequencing, FC − D7 / Modulation (ratio of the level of intensity of expression in log2 in two stages of differentiation) measured by high-throughput sequencing, WD − D0 / Modulation (ratio of the level of intensity of expression in log2 in two stages of differentiation) measured by high-throughput sequencing, WD − FC / Level of intensity of expression in log2 measured by high-throughput sequencing, D0 / Level of intensity of expression in log2 measured by high-throughput sequencing, D7 / Level of intensity of expression in log2 measured by high-throughput sequencing, FC / Level of intensity of expression in log2 measured by high-throughput sequencing, WD: Table VI; for Level of intensity of expression in log2 At the differentiated stage (WD) measured in HTS: healthy human airway epithelial tissue; for Level of intensity of expression in log2 measured by high-throughput sequencing, D0: stage D0; for Level of intensity of expression in log2 measured by high-throughput sequencing, D7: stage D7; for Level of intensity of expression in log2 measured by high-throughput sequencing, FC: stage FC; for Level of intensity of expression in log2 At the differentiated stage (WD) measured in HTS / Level of intensity of expression in log2 measured by high-throughput sequencing, WD: stage WD; for Modulation (ratio of the level of intensity of expression in log2 in two stages of differentiation), D7 − D0 / Modulation (ratio of the level of intensity of expression in log2 in two stages of differentiation), FC − D7 / Modulation (ratio of the level of intensity of expression in log2 in two stages of differentiation), WD − FC / Abundance (%), D0 / Abundance (%), D7 / Abundance (%), FC / Abundance (%), WD: HTS; for Abundance (%), D0: ALI-D0; for Abundance (%), D7: ALI-D7; for Abundance (%), FC: ALI-FC; for Abundance (%), WD: ALI-WD
# Method in brief: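 Reads per 5p and 3p strand scaled to 10^6 sequences, then to percentage abundance; linear model plus empirical Bayes normalization. Retained miRNAs exceeded 1% of total in at least one condition, with |Log2 Ratio| below 0.5 and adjusted P-value below 0.05.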
# [2] = tested on: human airway epithelial cells (HAECs); test: Agilent miRNA chips, miRNA expression at four stages of differentiation of HAECs; details: for Modulation (ratio of the level of intensity of expression in log2 in two stages of differentiation) measured with the Agilent chips, D7 − D0 / Modulation (ratio of the level of intensity of expression in log2 in two stages of differentiation) measured with the Agilent chips, FC − D7 / Modulation (ratio of the level of intensity of expression in log2 in two stages of differentiation) measured with the Agilent chips, WD − D0 / Modulation (ratio of the level of intensity of expression in log2 in two stages of differentiation) measured with the Agilent chips, WD − FC / Level of intensity of expression in log2 measured with the Agilent chips, D0 / Level of intensity of expression in log2 measured with the Agilent chips, D7 / Level of intensity of expression in log2 measured with the Agilent chips, FC / Level of intensity of expression in log2 measured with the Agilent chips, WD: Table VI; for Modulation (ratio of the level of intensity of expression in log2 at two stages of differentiation), FC − D7 / Modulation (ratio of the level of intensity of expression in log2 at two stages of differentiation), WD − FC: Agilent miRNA chips, Table V; for Level of intensity of expression in log2 measured with the Agilent chips, D0: stage D0; for Level of intensity of expression in log2 measured with the Agilent chips, D7: stage D7; for Level of intensity of expression in log2 measured with the Agilent chips, FC: stage FC; for Level of intensity of expression in log2 measured with the Agilent chips, WD: stage WD
# Method in brief: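 RNA from the same patients used for small-RNA sequencing was labelled and hybridized to a Human miRNA Microarray v2 (866 human and 89 human viral miRNAs, covering miRBase v.12.0) with the kit's labelling and hybridization protocol, giving miRNA expression profiles to compare against the sequencing data.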
# [3] = tested on: basal cells and pyramidal cells of the airway epithelium; test: miRNA expression in sorted basal cells versus pyramidal cells (ciliated + secretory), HTS and Agilent chips; design: species or system human; details: for Modulation of expression of the miRNAs in pyramidal cells (323(−)) relative to basal cells 323(+): HTS and Agilent chips; for Intensity of the level of expression in log2 in pyramidal cells (323(−)): pyramidal cells (ciliated + secretory)
# Method in brief: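 Nasal polyp or concha epithelial cells from 3 donors were stained with CD151-PE and anti-tissue factor-FITC for 20 min at 4° C, with DAPI excluding damaged cells. CD151+/TF+ basal and CD151−/TF− ciliated/secretory cells were FACS-sorted; total RNA miRNA profiles came from Agilent chips or high-throughput sequencing.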
Substance,"Modulation (ratio of the level of intensity of expression in log2 in two stages of differentiation) measured by high-throughput sequencing, D7 − D0 [1]","Modulation (ratio of the level of intensity of expression in log2 in two stages of differentiation) measured by high-throughput sequencing, FC − D7 [1]","Modulation (ratio of the level of intensity of expression in log2 in two stages of differentiation) measured by high-throughput sequencing, WD − D0 [1]","Modulation (ratio of the level of intensity of expression in log2 in two stages of differentiation) measured by high-throughput sequencing, WD − FC [1]",Level of intensity of expression in log2 At the differentiated stage (WD) measured in HTS [1],"Level of intensity of expression in log2 measured by high-throughput sequencing, D0 [1]","Level of intensity of expression in log2 measured by high-throughput sequencing, D7 [1]","Level of intensity of expression in log2 measured by high-throughput sequencing, FC [1]","Level of intensity of expression in log2 measured by high-throughput sequencing, WD [1]","Modulation (ratio of the level of intensity of expression in log2 in two stages of differentiation) measured with the Agilent chips, D7 − D0 [2]","Modulation (ratio of the level of intensity of expression in log2 in two stages of differentiation) measured with the Agilent chips, FC − D7 [2]","Modulation (ratio of the level of intensity of expression in log2 in two stages of differentiation) measured with the Agilent chips, WD − D0 [2]","Modulation (ratio of the level of intensity of expression in log2 in two stages of differentiation) measured with the Agilent chips, WD − FC [2]","Level of intensity of expression in log2 measured with the Agilent chips, D0 [2]","Level of intensity of expression in log2 measured with the Agilent chips, D7 [2]","Level of intensity of expression in log2 measured with the Agilent chips, FC [2]","Level of intensity of expression in log2 measured with the Agilent chips, WD [2]",Modulation of expression of the miRNAs in pyramidal cells (323(−)) relative to basal cells 323(+) [3],Intensity of the level of expression in log2 in basal cells (323(+)) [3],Intensity of the level of expression in log2 in pyramidal cells (323(−)) [3],other results
"hsa-miR-151-5p: human miRNA, SEQ ID No. 8 (UCGAGGAGCUCACAGUCUAGU; expressed or natural sequence; listed as Homo sapiens)",1.13 log2,−0.02 log2,1.02 log2,−0.09 log2,10.22 log2,9.20 log2,10.33 log2,10.31 log2,10.22 log2,1.83 log2,−0.37 log2,1.46 log2,0.00 log2,6.71 log2,8.54 log2,8.17 log2,8.17 log2,−0.73,7.24 log2,6.51 log2,"Modulation (ratio of the level of intensity of expression in log2 at two stages of differentiation), FC − D7 [2]: −0.37 log2; Modulation (ratio of the level of intensity of expression in log2 at two stages of differentiation), WD − FC [2]: 0.00 log2"
"hsa-miR-181a: human miRNA, SEQ ID No. 12 (AACAUUCAACGCUGUCGGUGAGU; expressed or natural sequence; listed as Homo sapiens)",0.00 log2,0.00 log2,0.00 log2,0.00 log2,0.01 log2,0.01 log2,0.01 log2,0.01 log2,0.01 log2,1.41 log2,−0.84 log2,0.20 log2,−0.37 log2,7.05 log2,8.47 log2,7.62 log2,7.25 log2,−2.29,6.88 log2,4.59 log2,"Modulation (ratio of the level of intensity of expression in log2 at two stages of differentiation), FC − D7 [2]: −0.84 log2; Modulation (ratio of the level of intensity of expression in log2 at two stages of differentiation), WD − FC [2]: −0.37 log2"
"hsa-miR-191: human miRNA, SEQ ID No. 13 (CAACGGAAUCCCAAAAGCAGCUG; expressed or natural sequence; listed as Homo sapiens)",0.90 log2,0.84 log2,2.15 log2,0.42 log2,16.82 log2,14.67 log2,15.57 log2,16.40 log2,16.82 log2,2.32 log2,0.29 log2,2.31 log2,−0.30 log2,0.64 log2,2.97 log2,3.25 log2,2.95 log2,0.00,0.14 log2,0.14 log2,"Modulation (ratio of the level of intensity of expression in log2 in two stages of differentiation), D7 − D0 [1]: 0.90 log2; Modulation (ratio of the level of intensity of expression in log2 in two stages of differentiation), FC − D7 [1]: 0.84 log2; Modulation (ratio of the level of intensity of expression in log2 in two stages of differentiation), WD − FC [1]: 0.42 log2; Abundance (%), D0 [1]: 5.71%; Abundance (%), D7 [1]: 10.68%; Abundance (%), FC [1]: 18.46%; Abundance (%), WD [1]: 18.69%"
"hsa-miR-193b: human miRNA, SEQ ID No. 14 (AACUGGCCCUCAAAGUCCCGCU; expressed or natural sequence; listed as Homo sapiens)",−1.17 log2,−0.90 log2,−1.60 log2,0.48 log2,11.67 log2,13.26 log2,12.09 log2,11.19 log2,11.67 log2,−0.67 log2,−1.19 log2,−1.93 log2,−0.07 log2,8.62 log2,7.95 log2,6.76 log2,6.69 log2,−3.57,3.90 log2,0.33 log2,"Modulation (ratio of the level of intensity of expression in log2 in two stages of differentiation), D7 − D0 [1]: −1.17 log2; Modulation (ratio of the level of intensity of expression in log2 in two stages of differentiation), FC − D7 [1]: −0.90 log2; Modulation (ratio of the level of intensity of expression in log2 in two stages of differentiation), WD − FC [1]: 0.48 log2; Abundance (%), D0 [1]: 2.16%; Abundance (%), D7 [1]: 0.96%; Abundance (%), FC [1]: 0.50%; Abundance (%), WD [1]: 0.52%; Modulation (ratio of the level of intensity of expression in log2 at two stages of differentiation), FC − D7 [2]: −1.19 log2; Modulation (ratio of the level of intensity of expression in log2 at two stages of differentiation), WD − FC [2]: −0.07 log2; cell type in which the miRNA is specifically expressed ([3]; sorted ciliated/pyramidal versus basal cells): more specific to the basal cells"
